# In patent US20030113742A1, “Methods and compositions for the modulation of biofilm formation” (priority 2001, published 2003):
# What was measured:
# [1] = tested on: planktonic P. aeruginosa PAO1; test: Minimum inhibitory concentration for planktonic cells; type: cell-based, Pseudomonas aeruginosa PAO1
# P. aeruginosa biofilms [2] = test: Microarray of genes regulated by tobramycin in P. aeruginosa biofilms; type: cell-based, Pseudomonas aeruginosa PAO1; details: for Fold activation ± SE: tobramycin 5 μg/ml 24 h, treated vs untreated biofilms
# Description: (§1) P. aeruginosa PAO1 was grown at 37° C. with aeration in chemostat vessels (100 ml of medium, dilution rate, 0.2 h^−1). The growth medium consisted of 0.5% NH4Cl, 0.25% NaCl, 0.015% KH2PO4, 1.5% MOPS (pH, 7.0), and 0.015% casamino acids. For biofilms, the chemostat vessel contained 100 g of sterilized granite pebbles (approximately 70 pebbles). Vessels were inoculated with approximately 10^6 P. aeruginosa cells. For biofilm cultures, cells were allowed to attach to the rocks for 24 h prior to initiating the flow of medium, after which flow was initiated at a high rate (100 ml/h). After 2 h at this flow rate, more than 99% of all unattached bacteria were washed away. Flow was then decreased to give a final dilution rate identical to that in the planktonic chemostat. After 5 days cell numbers in the biofilm and planktonic chemostats were similar ([…]) as determined with standard plate counting techniques. To remove biofilm bacteria for plate counting, rocks were vortexed for 2 minutes in 5 ml phosphate buffered saline. A small planktonic population was present in the biofilm reactors throughout the experiment, but never represented more than 0.1% of the total chemostat population.
# RNA was isolated from planktonic and biofilm bacteria using the Trizol reagent (Life Technologies, Grand Island, N.Y.). Planktonic cells were pelleted by centrifugation (10,000 rpm for 10 min) at 4° C. For biofilm RNA isolation, rocks containing biofilm bacteria were rinsed with sterile medium and suspended in Trizol reagent. After vortexing for 1 min the rocks were removed and the remaining cell material was sonicated for 10 s. Insoluble material was removed by centrifugation and RNA was isolated as described above. Contaminating DNA was eliminated by DNase treatment, and RNA was isolated by phenol-chloroform extraction and precipitation with LiCl. cDNA probes were produced from RNA using random primers (NSNSNSNSNS) and Cy5-dCTP or Cy3-dCTP (Amersham, Buckinghamshire, UK) according to previously described procedures (J. K. Ichikawa, et al., Proc. Natl. Acad. Sci. U.S.A. 97, 9659 (2000)). To avoid complications associated with Cy5-dCTP and Cy3-dCTP incorporation rates into resulting cDNA, each RNA comparison was performed with both dye combinations on separate microarrays.
# The microarrays were glass microscope slides containing representative gene-specific DNA fragments from 5,500 of the estimated 5,570 open reading frames (ORFs) of P. aeruginosa. The microarrays were printed with a Generation II Array printer (Molecular Dynamics), and the hybridized microarrays were images with a Generation II scanning confocal fluorescent microscope (Molecular Dynamics).
# The existence in a biofilm might induce moderate levels of resistance to all antimicrobial treatments. This could afford cells in a biofilm the opportunity to respond to an antibiotic by inducing genes more specific to that antibiotic. Thus, biofilms exposed to tobramycin were compared with untreated biofilms. Tobramycin (5 μg/ml) was added to influent medium after 4 days of biofilm growth. After 24 h, biofilms were removed and processed for RNA.
# The results (shown in Table 2, below) are from two independent experiments (1 standard error of the mean, SE). Positive values represent activation and negative values represent repression. Gene identifications and P. aeruginosa ORF numbers were obtained from the Pseudomonas Genome Project website. Genes that were repressed in biofilms and activated by tobramycin are underlined. Genes that were activated in biofilms and repressed by tobramycin are shown in italics and bold-face type. Eight of the 20 genes identified as being differentially expressed in tobramycin-treated biofilms (Table 2) were also identified as being differentially expressed in biofilms as compared to planktonic bacterial cells. […]
# P. aeruginosa biofilms [3] = test: Plate counting of biofilm cell numbers after tobramycin; type: cell-based, Pseudomonas aeruginosa PAO1; details: 5 μg/ml
# Description: as §1
# The existence in a biofilm might induce moderate levels of resistance to all antimicrobial treatments. […]
# [4] = tested on: P. aeruginosa wild-type and rpoS mutant biofilms; test: Killing of wild-type and rpoS mutant biofilms by tobramycin; type: cell-based, Pseudomonas aeruginosa; details: increasing amounts of tobramycin
# Description: To examine the involvement of rpoS in biofilm development, the wild-type strain and an isogenic rpoS mutant strain were grown in flow cell reactors and both were tagged with a gfp plasmid which expresses green fluorescent protein (GFP) (Whitely, et al. (2000) J. Bacteriology 182:4356-4360). The P. aeruginosa biofilms that developed in the flow cells were examined by scanning confocal laser microscopy. Within four hours, differences between the rpoS mutant and the wild-type biofilms were evident. The mutant had attached to and covered much more of the glass surface. In a quantitative microtitre dish assay, biofilm formation of the parent strain was 38% of the rpoS mutant. After 24 hours, the mutant biofilm had matured and large structured groups of bacteria were evident.
# To assess whether rpoS influences the susceptibility of P. aeruginosa biofilms to antibiotics, biofilms of the P. aeruginosa wild-type and rpoS mutant were treated with increasing amounts of the aminoglycoside antibiotic tobramycin. […] These studies confirm that the microarray experiment, as described herein, identified a gene important for biofilm development and antibiotic susceptibility.
# [5] = tobramycin-treated vs untreated biofilms, 7× MIC for planktonic cells
smiles,measurement,setting,value
NC[C@H]1O[C@H](O[C@H]2[C@H](O)[C@@H](O[C@H]3O[C@H](CO)[C@@H](O)[C@H](N)[C@H]3O)[C@H](N)C[C@@H]2N)[C@H](N)C[C@@H]1O [tobramycin],5 μg/ml concentration as multiple of the minimum inhibitory concentration,[1],approximately 7 ×
same,Fold activation ± SE,P. aeruginosa biofilms [2]; gene: Conserved hypothetical protein (PA2498),2.9 ± 0.6 Fold
same,Fold activation ± SE,P. aeruginosa biofilms [2]; gene: Conserved hypothetical protein (PA3463),8.3 ± 3.2 Fold
same,Fold activation ± SE,P. aeruginosa biofilms [2]; gene: Conserved hypothetical protein (PA3785),5.0 ± 1.3 Fold
same,Fold activation ± SE,P. aeruginosa biofilms [2]; gene: Conserved hypothetical protein (PA3819),2.1 ± 0.3 Fold
same,Fold activation ± SE,P. aeruginosa biofilms [2]; gene: DnaK (PA4761),2.7 ± 0.4 Fold
same,Fold activation ± SE,P. aeruginosa biofilms [2]; gene: GroES (PA4386),5.8 ± 1.1 Fold
same,Fold activation ± SE,P. aeruginosa biofilms [2]; gene: Hypothetical protein (PA1110),8.7 ± 1.7 Fold
same,Fold activation ± SE,"P. aeruginosa biofilms [2]; gene: Hypothetical protein (PA1870), negative = repression",−6.4 ± 1.5 Fold
same,Fold activation ± SE,"P. aeruginosa biofilms [2]; gene: Hypothetical protein (PA1893), negative = repression",−2.4 ± 0.3 Fold
same,Fold activation ± SE,P. aeruginosa biofilms [2]; gene: Hypothetical protein (PA2703),19.3 ± 3.7 Fold
same,Fold activation ± SE,"P. aeruginosa biofilms [2]; gene: Hypothetical protein (PA3884), negative = repression",−14.7 ± 5.7 Fold
same,Fold activation ± SE,P. aeruginosa biofilms [2]; gene: Hypothetical protein (PA4326),23.2 ± 7.5 Fold
same,Fold activation ± SE,"P. aeruginosa biofilms [2]; gene: Hypothetical protein of bacteriophage PF1 (PA0721), negative = repression",−3.9 ± 1.0 Fold
same,Fold activation ± SE,"P. aeruginosa biofilms [2]; gene: Hypothetical protein of bacteriophage PF1 (PA0725), negative = repression",−3.1 ± 0.5 Fold
same,Fold activation ± SE,P. aeruginosa biofilms [2]; gene: Probable DNA binding protein (PA5348),18.1 ± 4.9 Fold
same,Fold activation ± SE,P. aeruginosa biofilms [2]; gene: Probable drug efflux protein (PA1541),4.7 ± 1.4 Fold
same,Fold activation ± SE,P. aeruginosa biofilms [2]; gene: Probable metal transporting P-type ATPase (PA3920),3.6 ± 1.1 Fold
same,Fold activation ± SE,P. aeruginosa biofilms [2]; gene: Probable transcriptional regulator (PA3574),3.3 ± 0.6 Fold
same,Fold activation ± SE,P. aeruginosa biofilms [2]; gene: Ribosome modulation factor (PA3049),24.7 ± 11.4 Fold
same,Fold activation ± SE,"P. aeruginosa biofilms [2]; gene: Urease beta subunit (PA4867), negative = repression",−3.7 ± 1.1 Fold
same,number of genes activated by tobramycin,P. aeruginosa biofilms [2]; [5],14
same,number of genes differentially expressed in tobramycin-treated biofilms,P. aeruginosa biofilms [2]; [5],Twenty
same,number of genes repressed by tobramycin,P. aeruginosa biofilms [2]; [5],6
same,effect on cell numbers in biofilms,P. aeruginosa biofilms [3],did not significantly affect cell numbers in biofilms
same,resistance of rpoS mutant biofilms to killing by tobramycin compared with wild-type biofilms,[4],much more resistant
